The source made the active and inactive calls.
What was measured:
[1] = Luminescence Cell-Based Dose Confirmation HTS to Identify Inhibitors of Platelet Dense Granule Release. [Related pubchem assays: 1663 (Primary HTS), 1678 (Summary of Project)]; assay type: functional
[2] = target: T1, Microphthalmia-associated transcription factor (Homo sapiens, UniProt O75030); assay: reducers of TRPM1 reporter luminescence, concentration series – cell-based, SK-MEL-5, cherry-picked, set 3, MITF inhibitor project, dose response (AID 493073); assay type: functional;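 note: SK-MEL-5 melanoma cells with luciferase driven by the MITF target TRPM1 promoter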
T1 sequence (O75030 whole entry): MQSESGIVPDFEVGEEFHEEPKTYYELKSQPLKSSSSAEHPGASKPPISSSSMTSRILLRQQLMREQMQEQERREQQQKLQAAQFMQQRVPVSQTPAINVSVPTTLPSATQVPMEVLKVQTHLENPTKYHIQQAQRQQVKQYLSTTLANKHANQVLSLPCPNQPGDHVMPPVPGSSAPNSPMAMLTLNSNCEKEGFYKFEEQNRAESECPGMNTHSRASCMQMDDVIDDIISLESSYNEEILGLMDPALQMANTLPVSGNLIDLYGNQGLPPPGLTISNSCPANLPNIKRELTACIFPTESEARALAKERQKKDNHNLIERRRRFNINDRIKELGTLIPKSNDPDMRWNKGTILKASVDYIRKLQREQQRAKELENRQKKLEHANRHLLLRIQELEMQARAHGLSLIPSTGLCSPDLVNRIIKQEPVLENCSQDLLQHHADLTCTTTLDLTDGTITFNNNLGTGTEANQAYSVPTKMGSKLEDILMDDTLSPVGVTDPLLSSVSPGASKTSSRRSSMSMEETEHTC

[3] = blockade of melanocortin 4 receptor signaling – cell-based, plate reader, cherry pick, counter-screen for LGR2 antagonist project, dose response (AID 743444); assay type: functional;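 note: transfected HEK 293 cells stimulated with alpha-MSH peptide; potency of inhibitors of the alpha-MSH evoked signal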
[4] = target: Luciferin 4-monooxygenase (Photinus pyralis, UniProt P08659); assay: inhibition of purified Photinus pyralis luciferase – biochemical, luminescence, dose response (AID 1891)
[5] = viability loss in HEK293 cells – cell-based, plate reader, cherry-picked samples, cytotoxicity control, dose response (AID 743446); assay type: functional
[6] = toxicity toward HepG2 liver cells – cell-based, plate reader, cherry-pick, antagonist series, cytotoxicity control, dose response (AID 743416); assay type: functional
[7] = alpha-synuclein stem-loop luciferase translation blockers – H4 neuroglioma cells, luminescence, confirmation (AID 1988); assay type: functional, cell-based
[8] = target: T2, Type-1 angiotensin II receptor (Homo sapiens, UniProt P30556); assay: antagonism of angiotensin II type 1 receptor – cell-based, uHTS hits, selectivity assay for APJ receptor antagonist project, dose response (AID 463214); assay type: functional;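 note: antagonist potency against angiotensin II stimulated AT1 response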
T2 sequence (P30556 whole entry): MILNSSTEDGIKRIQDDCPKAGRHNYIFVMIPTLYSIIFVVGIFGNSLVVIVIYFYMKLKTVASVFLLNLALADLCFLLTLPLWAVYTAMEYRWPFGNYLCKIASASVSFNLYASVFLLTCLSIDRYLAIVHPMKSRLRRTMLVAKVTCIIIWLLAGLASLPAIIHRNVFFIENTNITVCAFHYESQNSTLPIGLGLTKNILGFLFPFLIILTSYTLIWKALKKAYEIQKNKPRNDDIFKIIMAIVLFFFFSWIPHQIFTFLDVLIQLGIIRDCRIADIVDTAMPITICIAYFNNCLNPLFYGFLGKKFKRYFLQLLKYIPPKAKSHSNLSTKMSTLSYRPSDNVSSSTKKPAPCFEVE

[9] = A549 cell cytotoxicity, dose response, cytotoxicity control, plate reader, cherry-pick, antagonist series (AID 743412); assay type: functional, cell-based
[10] = target: Beta-galactosidase (Escherichia coli, UniProt Q8VNN2); assay: PubChem AID 485352; assay type: functional
[11] = test system: A-375; assay: proliferation inhibition in MITF-low A375 cells – cell-based, cherry-pick samples, set 2, counter-screen for MITF modulator project, dose response (AID 540335); assay type: functional; conditions: Homo sapiens
[12] = Luminescence Cell-Based Dose Response HTS to Identify Inhibitors of 5'UTR Stem-Loop Driven Prion Protein mRNA Translation in H4 Neuroglioblastoma Cells. [Related pubchem assays: 1827 (Project Summary), 1813 (Primary HTS)]; assay type: functional
[13] = blockers of bursicon-stimulated LGR2 cAMP reporter – cell-based, HEK293, CRE-luciferase reporter, cherry pick, set 2, dose response (AID 743343); assay type: functional;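 note: transfected cells were stimulated with diluted bursicon conditioned medium after compound addition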
[14] = target: T3, Beta-adrenergic receptor kinase 1 (Homo sapiens, UniProt P25098); assay: blockers of aptamer binding to GRK2 – biochemical, flow cytometry beads, FAM-aptamer, powder set 1, dose response (AID 588720)
[15] = target: T3, Beta-adrenergic receptor kinase 1; assay: aptamer displacement from bead-bound GRK2 – biochemical, cherry pick 1, bead flow cytometry, dose response (AID 504500)
[16] = target: T4, Apoptotic protease-activating factor 1 (Homo sapiens, UniProt O14727); assay: activation of Apaf-1 mediated apoptosis – fluorescent, uHTS hits, dose response (AID 588554); assay type: functional
T4 sequence (O14727 whole entry): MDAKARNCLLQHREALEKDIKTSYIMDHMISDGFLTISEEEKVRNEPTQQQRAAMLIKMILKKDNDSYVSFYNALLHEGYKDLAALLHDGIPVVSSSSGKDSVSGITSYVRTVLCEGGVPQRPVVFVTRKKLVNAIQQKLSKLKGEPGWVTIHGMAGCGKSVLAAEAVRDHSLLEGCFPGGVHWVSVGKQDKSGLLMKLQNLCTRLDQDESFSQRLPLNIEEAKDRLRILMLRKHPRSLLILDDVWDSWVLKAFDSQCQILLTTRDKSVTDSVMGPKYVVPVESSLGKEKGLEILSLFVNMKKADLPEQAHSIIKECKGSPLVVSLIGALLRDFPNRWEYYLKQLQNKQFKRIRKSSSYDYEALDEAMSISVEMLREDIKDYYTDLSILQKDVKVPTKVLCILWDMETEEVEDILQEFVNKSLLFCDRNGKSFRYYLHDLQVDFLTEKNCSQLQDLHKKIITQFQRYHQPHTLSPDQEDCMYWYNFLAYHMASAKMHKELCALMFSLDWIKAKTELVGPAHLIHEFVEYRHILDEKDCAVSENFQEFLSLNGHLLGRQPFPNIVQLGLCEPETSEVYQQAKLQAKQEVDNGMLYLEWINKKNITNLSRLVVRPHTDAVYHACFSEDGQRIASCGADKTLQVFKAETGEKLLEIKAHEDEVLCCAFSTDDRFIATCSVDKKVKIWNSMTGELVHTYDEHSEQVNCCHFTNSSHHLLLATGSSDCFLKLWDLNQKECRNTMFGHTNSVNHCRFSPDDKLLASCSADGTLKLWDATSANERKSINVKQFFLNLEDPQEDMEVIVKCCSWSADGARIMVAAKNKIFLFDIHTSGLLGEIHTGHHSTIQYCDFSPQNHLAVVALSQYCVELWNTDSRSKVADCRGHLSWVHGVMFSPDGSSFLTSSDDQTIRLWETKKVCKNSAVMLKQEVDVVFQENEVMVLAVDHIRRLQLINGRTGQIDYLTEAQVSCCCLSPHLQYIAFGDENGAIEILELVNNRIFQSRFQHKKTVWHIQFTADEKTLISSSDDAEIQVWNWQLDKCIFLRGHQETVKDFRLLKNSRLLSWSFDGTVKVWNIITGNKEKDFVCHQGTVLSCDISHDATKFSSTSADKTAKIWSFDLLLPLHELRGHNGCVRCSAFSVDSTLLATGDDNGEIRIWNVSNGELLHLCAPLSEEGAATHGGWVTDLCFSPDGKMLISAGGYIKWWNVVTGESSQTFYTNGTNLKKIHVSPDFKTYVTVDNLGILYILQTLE

[17] = target: Caspase-7 (Homo sapiens, UniProt P55210); assay: caspase-7 enzyme inhibition, selectivity check – biochemical, DEVD-R110 fluorescence, cherry-pick, selectivity assay for caspase-6 inhibitor project, dose response (AID 743295); assay type: functional
[18] = target: Protein S100-A4 (Homo sapiens, UniProt P26447); assay: human S100A4 peptide interaction inhibition curves – biochemical, fluorescence polarization, cherry-picked hits, dose response (AID 687001); assay type: functional
[19] = target: T5, Caspase-6 (Homo sapiens, UniProt P55212); assay: inhibition of CASP6 peptide cleavage – biochemical, VEID-R110 fluorescence, cherry-pick, dose response (AID 720632)
T5 sequence (P55212 whole entry): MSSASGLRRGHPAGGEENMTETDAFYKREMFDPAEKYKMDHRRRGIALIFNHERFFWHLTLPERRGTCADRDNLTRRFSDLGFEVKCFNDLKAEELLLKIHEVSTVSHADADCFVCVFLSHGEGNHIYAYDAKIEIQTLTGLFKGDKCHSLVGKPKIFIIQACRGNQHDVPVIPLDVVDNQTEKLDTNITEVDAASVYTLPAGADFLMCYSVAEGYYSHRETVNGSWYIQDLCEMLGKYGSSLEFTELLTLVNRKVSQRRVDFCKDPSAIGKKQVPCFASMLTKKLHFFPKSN

[20] = target: T6, Carboxy-terminal domain RNA polymerase II polypeptide A small phosphatase 1 (Homo sapiens, UniProt Q9GZU7); assay: CTDSP1 inhibitors, concentration-response, biochemical, absorbance readout, ultra-high-throughput screen actives (AID 540297); assay type: functional
T6 sequence (Q9GZU7 whole entry): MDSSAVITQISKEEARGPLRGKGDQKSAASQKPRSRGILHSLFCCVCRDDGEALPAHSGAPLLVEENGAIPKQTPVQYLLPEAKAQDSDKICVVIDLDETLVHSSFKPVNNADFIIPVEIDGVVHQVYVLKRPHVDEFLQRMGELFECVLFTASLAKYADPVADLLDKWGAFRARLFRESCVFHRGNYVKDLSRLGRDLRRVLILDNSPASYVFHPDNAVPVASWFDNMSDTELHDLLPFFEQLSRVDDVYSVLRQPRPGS

[21] = target: Glycogen synthase kinase-3 beta (Homo sapiens, UniProt P49841); assay: Inhibition of Human GSK-3 beta Activity Measured in Biochemical System Using Microfluidics - 2063-05_Inhibitor_Dose_DryPowder_Activity. [Related pubchem assays (depositor defined):AID2709]
[22] = target: Glycogen synthase kinase-3 alpha (Homo sapiens, UniProt P49840); assay: Inhibition of Human GSK-3 alpha Activity Measured in Biochemical System Using Microfluidics - 2063-06_Inhibitor_Dose_DryPowder_Activity. [Related pubchem assays (depositor defined):AID2709]
[23] = reduction of Shn3 3'UTR-driven luciferase in osteoblasts – cell-based, Clone20 osteoblasts, firefly luciferase, cherry-picked, dose response (AID 624132); assay type: functional;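 note: firefly luciferase luminescence from reporter carrying the Shn3 3'UTR in osteoblasts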
[24] = non-specific 3'UTR reporter inhibition in Clone20-Shn3RL – cell-based, Renilla luciferase, cherry-picked, counter-screen for Shn3 inhibitor project, dose response (AID 624133); assay type: functional
[25] = test system: HEK293; assay: EBV LMP1 TES2 canonical NF-kB signalling blockers – cell-based, HEK293, luciferase, cherry-pick, dose response (AID 588343); assay type: functional; conditions: Homo sapiens
[26] = Lymphoblastoid Cells (LCL) Cytotoxicity Secondary Assay Measured in Cell-Based System Using Plate Reader - 2122-03_Inhibitor_Dose_CherryPick_Activity_Set2. [Related pubchem assays (depositor defined):AID504586]
[27] = loss of viability in HepG2 cells – cell-based, CellTiter-Glo, cherry-picked, cytotoxicity control for Shn3 inhibitor project, dose response (AID 624134); assay type: functional
[28] = test system: Jurkat; assay: SAR Analysis of small molecule inhibitors of T-cell specific antigen receptor-induced NF-kB activation in a Jurkat cell line using a luminescence assay - Set 2. [Related pubchem assays (depositor defined):AID435003, AID435012, AID465]; assay type: functional, cell-based; conditions: Homo sapiens
[29] = test system: HEK293; assay: SAR Analysis of small molecule inhibitors of T-cell specific antigen receptor-induced NF-kB activation in a HEK-293T cell line using a luminescence assay - Set 2. [Related pubchem assays (depositor defined):AID435003, AID435012, AID489026]; assay type: functional, cell-based; conditions: Homo sapiens
[30] = test system: HEK293; assay: HEK293T cell viability loss, resazurin readout – resazurin fluorescence, cytotoxicity control for NF-kB activator project, SAR follow-up (AID 493251); assay type: functional, cell-based; conditions: Homo sapiens
[31] = test system: Candida albicans; assay: C. albicans growth inhibition with fluconazole – CaCi-2 strain, Alamar Blue, dry powder, set 4, dose response (AID 488943); assay type: functional, organism-based
[32] = test system: Candida albicans; assay: Candida growth reduction in fluconazole presence – CaCi-2 strain, Alamar Blue, dry powder, set 2, antifungal resistance reversal project, dose response (AID 488930); assay type: functional, organism-based
[33] = test system: Candida albicans; assay: resistant Candida growth with fluconazole co-treatment – CaCi-8 strain, Alamar Blue, dry powder, set 2, dose response (AID 488909); assay type: functional, organism-based
[34] = test system: Candida albicans; assay: fluconazole-resistant Candida strain growth inhibitors – CaCi-8 strain, dry powder, set 4, dose response (AID 488950); assay type: functional, organism-based

T3 sequence (P25098 whole entry): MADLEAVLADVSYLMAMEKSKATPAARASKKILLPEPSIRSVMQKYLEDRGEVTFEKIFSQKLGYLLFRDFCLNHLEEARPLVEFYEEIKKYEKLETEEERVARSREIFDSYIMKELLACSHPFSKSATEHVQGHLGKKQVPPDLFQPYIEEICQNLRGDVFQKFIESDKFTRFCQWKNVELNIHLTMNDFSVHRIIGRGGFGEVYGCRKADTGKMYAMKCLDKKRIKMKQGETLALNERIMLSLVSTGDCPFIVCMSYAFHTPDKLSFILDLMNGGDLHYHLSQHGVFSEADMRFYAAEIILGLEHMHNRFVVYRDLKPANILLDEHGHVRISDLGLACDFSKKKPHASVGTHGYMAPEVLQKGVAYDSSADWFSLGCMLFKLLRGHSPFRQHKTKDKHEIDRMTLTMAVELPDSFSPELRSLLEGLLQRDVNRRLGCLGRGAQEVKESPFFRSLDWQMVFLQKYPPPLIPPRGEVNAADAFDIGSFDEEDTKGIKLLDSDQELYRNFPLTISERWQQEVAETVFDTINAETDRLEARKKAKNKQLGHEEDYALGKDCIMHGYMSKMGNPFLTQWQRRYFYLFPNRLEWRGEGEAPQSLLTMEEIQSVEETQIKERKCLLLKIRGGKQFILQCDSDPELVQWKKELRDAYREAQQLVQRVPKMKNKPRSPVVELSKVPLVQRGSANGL
Chain of Glycogen synthase kinase-3 alpha (P49840 whole entry): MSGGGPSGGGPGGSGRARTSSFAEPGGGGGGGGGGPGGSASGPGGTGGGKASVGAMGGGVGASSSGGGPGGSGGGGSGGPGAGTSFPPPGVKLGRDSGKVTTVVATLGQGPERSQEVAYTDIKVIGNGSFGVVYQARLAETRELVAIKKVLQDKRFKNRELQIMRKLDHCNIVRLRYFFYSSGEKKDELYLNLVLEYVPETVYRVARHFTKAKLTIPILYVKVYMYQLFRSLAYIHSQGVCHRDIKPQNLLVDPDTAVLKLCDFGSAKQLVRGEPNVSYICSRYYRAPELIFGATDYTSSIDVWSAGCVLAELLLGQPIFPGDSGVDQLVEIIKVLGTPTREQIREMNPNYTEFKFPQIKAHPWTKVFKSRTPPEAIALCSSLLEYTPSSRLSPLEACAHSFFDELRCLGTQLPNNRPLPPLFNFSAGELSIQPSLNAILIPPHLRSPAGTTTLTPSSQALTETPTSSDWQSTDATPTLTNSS
Chain of Protein S100-A4 (P26447 whole entry): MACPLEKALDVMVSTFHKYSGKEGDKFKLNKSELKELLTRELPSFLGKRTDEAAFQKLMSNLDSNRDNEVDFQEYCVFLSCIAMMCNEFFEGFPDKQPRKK
Chain of Caspase-7 (P55210 24-198 limits assumed): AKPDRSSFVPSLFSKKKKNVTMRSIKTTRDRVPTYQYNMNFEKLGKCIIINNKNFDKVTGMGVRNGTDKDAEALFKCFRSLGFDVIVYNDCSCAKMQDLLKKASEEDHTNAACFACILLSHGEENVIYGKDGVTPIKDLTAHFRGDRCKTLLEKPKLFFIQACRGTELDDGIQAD
Chain of Caspase-7 (P55210 207-303 limits assumed): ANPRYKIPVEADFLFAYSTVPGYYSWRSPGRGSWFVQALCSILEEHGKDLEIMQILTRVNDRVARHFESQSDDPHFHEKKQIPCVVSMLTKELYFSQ
Chain of Luciferin 4-monooxygenase (P08659 whole entry): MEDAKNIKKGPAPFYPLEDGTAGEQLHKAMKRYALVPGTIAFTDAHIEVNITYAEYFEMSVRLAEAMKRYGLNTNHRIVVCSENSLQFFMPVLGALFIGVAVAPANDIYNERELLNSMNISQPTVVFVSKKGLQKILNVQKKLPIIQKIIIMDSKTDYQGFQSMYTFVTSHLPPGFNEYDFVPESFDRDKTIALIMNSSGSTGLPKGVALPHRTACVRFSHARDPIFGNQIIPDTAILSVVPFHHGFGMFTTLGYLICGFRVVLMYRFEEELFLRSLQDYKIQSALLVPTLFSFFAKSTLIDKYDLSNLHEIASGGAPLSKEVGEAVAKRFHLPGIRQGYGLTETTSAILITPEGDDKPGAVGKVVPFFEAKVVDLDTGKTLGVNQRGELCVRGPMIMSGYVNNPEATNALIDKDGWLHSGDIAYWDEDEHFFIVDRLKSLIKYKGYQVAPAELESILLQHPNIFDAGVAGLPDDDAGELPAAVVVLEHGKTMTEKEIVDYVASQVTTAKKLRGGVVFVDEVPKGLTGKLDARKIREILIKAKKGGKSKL
Chain of Beta-galactosidase (Q8VNN2 whole entry): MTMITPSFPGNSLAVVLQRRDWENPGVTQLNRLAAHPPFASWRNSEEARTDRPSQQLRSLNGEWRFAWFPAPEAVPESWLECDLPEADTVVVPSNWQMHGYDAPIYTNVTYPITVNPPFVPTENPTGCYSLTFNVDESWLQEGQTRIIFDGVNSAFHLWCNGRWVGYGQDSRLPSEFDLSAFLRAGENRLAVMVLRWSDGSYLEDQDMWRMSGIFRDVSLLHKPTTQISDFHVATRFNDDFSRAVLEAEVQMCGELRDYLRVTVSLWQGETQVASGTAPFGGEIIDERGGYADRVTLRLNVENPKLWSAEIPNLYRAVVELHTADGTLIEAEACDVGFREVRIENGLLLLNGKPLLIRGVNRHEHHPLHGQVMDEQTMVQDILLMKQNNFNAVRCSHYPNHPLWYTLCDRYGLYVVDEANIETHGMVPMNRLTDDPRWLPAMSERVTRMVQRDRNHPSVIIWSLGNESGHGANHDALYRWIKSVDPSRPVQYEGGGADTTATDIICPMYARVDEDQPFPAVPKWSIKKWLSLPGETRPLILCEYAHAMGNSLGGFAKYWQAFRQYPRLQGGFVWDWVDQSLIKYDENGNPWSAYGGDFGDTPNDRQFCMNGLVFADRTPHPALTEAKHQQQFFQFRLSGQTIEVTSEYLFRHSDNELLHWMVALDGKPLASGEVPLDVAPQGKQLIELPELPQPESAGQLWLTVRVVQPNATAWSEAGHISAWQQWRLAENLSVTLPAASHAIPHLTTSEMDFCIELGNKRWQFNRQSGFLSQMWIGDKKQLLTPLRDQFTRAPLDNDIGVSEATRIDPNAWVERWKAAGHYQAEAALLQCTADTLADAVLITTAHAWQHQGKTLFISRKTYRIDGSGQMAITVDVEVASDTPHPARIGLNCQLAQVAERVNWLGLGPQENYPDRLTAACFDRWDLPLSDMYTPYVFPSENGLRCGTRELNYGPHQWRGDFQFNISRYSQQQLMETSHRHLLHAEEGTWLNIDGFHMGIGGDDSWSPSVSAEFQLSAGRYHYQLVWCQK
Chain of Glycogen synthase kinase-3 beta (P49841 whole entry): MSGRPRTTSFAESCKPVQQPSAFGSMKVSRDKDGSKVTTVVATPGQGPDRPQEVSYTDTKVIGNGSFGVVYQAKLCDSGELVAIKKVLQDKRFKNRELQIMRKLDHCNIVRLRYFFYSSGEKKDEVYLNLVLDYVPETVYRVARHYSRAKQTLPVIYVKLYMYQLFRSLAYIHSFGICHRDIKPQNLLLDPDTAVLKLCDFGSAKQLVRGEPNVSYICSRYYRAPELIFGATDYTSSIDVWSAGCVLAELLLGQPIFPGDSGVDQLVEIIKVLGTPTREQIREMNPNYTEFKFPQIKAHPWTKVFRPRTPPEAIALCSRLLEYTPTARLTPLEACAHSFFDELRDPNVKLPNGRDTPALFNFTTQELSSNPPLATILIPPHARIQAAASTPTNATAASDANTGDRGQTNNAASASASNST

COc1ccc(-c2cc3c(nn2)-c2ccccc2C3=O)cc1
EC50 [1]: 6.87 µM (active) | AC50 [2]: 4.22 µM (active) | AC50 [3]: 5.11 µM (active) | EC50 [4]: 0.384 µM (active) | AC50 [5]: 23.4 µM (active) | AC50 [6]: 15.8 µM (active) | EC50 [7]: 0.375 µM (inconclusive) | IC50 [8]: 6.98 µM (active) | AC50 [9]: 29.2 µM (active) | EC50 [10]: > 40 µM (inactive) | AC50 [11]: 20.2 µM (active) | EC50 [12]: > 60 µM (not active) | AC50 [13]: 4.41 µM (active)

COc1ccc([N+](=O)[O-])cc1NC(=O)CCS(=O)(=O)c1ccc(Br)cc1
EC50 [14]: 1.45 µM (active) | EC50 [15]: 15 µM (inactive) | EC50 [16]: 12.2 µM (active) | AC50 [17]: > 70 µM (inactive) | AC50 [18]: 4.1 µM (active) | AC50 [19]: 3.61 µM (active) | IC50 [20]: 4.79 µM (active)

Nc1nc(NCCCN2CCOCC2)nc(Nc2cccc(F)c2)c1[N+](=O)[O-]
AC50 [21]: 0.208 µM (active) | AC50 [22]: 0.698 µM (active)

CCc1cc2c(N3CCN(c4ccccc4)CC3)ncnc2s1
AC50 [23]: 6.18 µM (active) | AC50 [24]: 11.3 µM (active) | AC50 [25]: 26.7 µM (active) | AC50 [26]: 26.2 µM (active) | AC50 [27]: 34 µM (active)

COc1ccc(C(=O)Nc2ccc(NC(=O)c3cc4ccccc4o3)cc2)cc1Cl
IC50 [28]: > 79 µM (inactive) | IC50 [29]: > 80 µM (inactive) | IC50 [30]: > 80 µM (inactive)

O=C(c1ccc(Cl)cc1)C1CCN(c2ccnc3cc(Cl)ccc23)CC1
AC50 [31]: 0.342 µM (active) | AC50 [32]: 0.663 µM (active) | AC50 [33]: 3.81 µM (active) | AC50 [34]: 0.579 µM (active)

Source: ChEMBL document CHEMBL1201862, “PubChem BioAssay data set” (2004)
